Results as given in patent US7279470B2 (priority 2001, dated 2007).

Legend:
[1] = target: T1, Hormone-sensitive lipase (HSL) (Homo sapiens, UniProt Q05469); assay type: biochemical; settings: 10 μM sample concentration; percent activity relative to a non-inhibited sample (no compound); 30 min preincubation 25° C., 120 min at 37° C.
T1 sequence (Q05469 1-1076): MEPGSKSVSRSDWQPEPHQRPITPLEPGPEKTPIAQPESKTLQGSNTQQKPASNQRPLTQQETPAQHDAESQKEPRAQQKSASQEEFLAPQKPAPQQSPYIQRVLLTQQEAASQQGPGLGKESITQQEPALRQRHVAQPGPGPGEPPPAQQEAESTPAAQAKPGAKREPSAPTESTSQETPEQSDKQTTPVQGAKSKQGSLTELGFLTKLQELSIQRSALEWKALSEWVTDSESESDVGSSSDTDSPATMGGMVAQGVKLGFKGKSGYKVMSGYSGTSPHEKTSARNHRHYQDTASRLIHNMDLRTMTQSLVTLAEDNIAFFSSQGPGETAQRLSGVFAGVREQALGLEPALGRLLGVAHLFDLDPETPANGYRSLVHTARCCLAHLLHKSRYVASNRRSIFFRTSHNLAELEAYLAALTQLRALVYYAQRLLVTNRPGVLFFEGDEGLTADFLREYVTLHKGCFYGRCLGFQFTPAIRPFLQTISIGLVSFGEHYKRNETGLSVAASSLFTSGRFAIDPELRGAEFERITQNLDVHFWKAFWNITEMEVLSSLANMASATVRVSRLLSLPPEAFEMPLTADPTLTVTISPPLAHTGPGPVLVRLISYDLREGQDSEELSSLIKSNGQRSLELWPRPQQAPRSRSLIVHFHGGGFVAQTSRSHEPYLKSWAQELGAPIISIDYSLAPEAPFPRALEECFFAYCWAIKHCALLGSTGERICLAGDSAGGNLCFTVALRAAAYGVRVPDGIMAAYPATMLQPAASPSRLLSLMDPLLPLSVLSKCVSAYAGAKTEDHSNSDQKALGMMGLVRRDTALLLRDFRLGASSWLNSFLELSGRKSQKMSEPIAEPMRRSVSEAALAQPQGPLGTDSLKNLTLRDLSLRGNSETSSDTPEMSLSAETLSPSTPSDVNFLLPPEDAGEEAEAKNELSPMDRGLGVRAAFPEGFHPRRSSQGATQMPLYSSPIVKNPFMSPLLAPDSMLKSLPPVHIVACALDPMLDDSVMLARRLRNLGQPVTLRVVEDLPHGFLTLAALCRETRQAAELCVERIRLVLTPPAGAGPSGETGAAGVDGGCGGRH
Description: Materials. The Hormone-sensitive lipase was provided by Dr. Cecilia Holm, from Lund University Sweden or produced and purified by Novo Nordisk (NN) using the reagents and protocols used by Dr. Holm. […] All other reagents are of commercial grade and obtained from various commercial sources.
BSA is added as product receptor. The transfer of the fluorochrome from the lipid phase to the water (BSA) phase changes the fluorescent properties of the fluorochrome. The changes can be monitored on a fluorimeter with an excitation wavelength of 450 nm and an emission wavelength of 545 nm.
Compound and HSL (20 μL compound, 10 μL enzyme and 70 μL PED-BSA buffer) is preincubated for 30 min at 25° C. before addition of substrate (100 μL). Amount of formed product is measured after 120 min incubation at 37° C.

[2] = target: T1, Hormone-sensitive lipase (HSL); assay type: biochemical; settings: 10 μM concentration; percent activity relative to an un-inhibited sample (no compound); 3H-Triolein substrate, 25° C.
Source text: Materials. The Hormone-sensitive lipase was provided by Dr. Cecilia Holm, from Lund University Sweden or produced and purified by Novo Nordisk (NN) using the reagents and protocols used by Dr. Holm. The substrates used are: ^3H-labeled triolein (TO) from Amersham, Buckinghamshire, U.K. cat No. TRA191; 5-20 Ci/mmol dissolved in toluene, triolein (Sigma, Cat. No. T-1740), fluorochrome-labeled triacylglyceride (cis-octadec-9-enoic acid 2-[12-(7-nitrobenzo[12,5]oxadiazol-4-ylamino)dodecanoyloxy]-1-cis-octadec-9-enoyloxymethyl-ethyl ester) prepared by Novo Nordisk (NN) by conventional methods, and 1,3-(di[^3H]-stearin), 2-(PEG-Biotin)glycerol prepared in collaboration with Amersham Pharmacia Biotech, UK and described in WO 01/073442. Phosphatidyl choline (PC) and phosphatidyl inositol (PI) are from Sigma (St Luis MO cat. Nos. P-3556 and P-5954 respectively). All other reagents are of commercial grade and obtained from various commercial sources.
3180.2: Assay for determination of percent inhibition by compound at 10 μM concentration. A lipid emulsion with ^3H-Triolein and phospholipid is used as substrate with a standard cencentration of highly purified HSL. BSA is added as product receptor. The substrate is prepared as follows: […]

| Molecule | Test 3190.1 HSL_FL % ACTIVITY All [1] | Test 3180.2 HSL % ACTIVITY All [2] |
| --- | --- | --- |
| CN(C(=O)Oc1ccc(OC(F)(F)C(F)(F)F)cc1)c1ccccc1 [Example 20] | 51% |  |
| O=C(Oc1ccc(Oc2ccc3c(C(F)(F)F)cc(C(F)(F)F)nc3n2)cc1)N1CCOCC1 [Example 90, Morpholine-4-carboxylic acid 4-(5,7-bis-trifluoromethyl-[1,8]naphthypyridin-2-yloxy)-phenyl ester] | 24% |  |
| Cc1c(Cc2ccccc2)c(=O)oc2cc(OC(=O)N3CCOCC3)ccc12 [Example 92] |  | 62% |
| N-Methyl-N-phenethyl-5-ethyl-3-(4-chlorophenyl)-[1,2,4]triazole-1-carboxamide [Example 119] |  | 10% |
